From patent US10457655B2, “Compounds and compositions for inhibition of FASN” (FORMA Therapeutics, Inc., priority 2013, dated 2019)

molecular target: FASN enzyme (Homo sapiens, UniProt P49327); assay: Enzymatic Assay for FASN Inhibitors; format: biochemical
Procedure, shortened: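 40 nM FASN preincubated with compound 60 min at 25° C in HEPES pH 7.3 buffer with 0.04% Triton X-100. Then 20 μM acetyl-CoA, 60 μM malonyl-CoA and 100 μM NADPH added for 90 min, quenched with CPM thiol probe; fluorescence 360/530 nm, IC50 by four-parameter fit.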

Sequence of FASN enzyme (P49327 whole entry): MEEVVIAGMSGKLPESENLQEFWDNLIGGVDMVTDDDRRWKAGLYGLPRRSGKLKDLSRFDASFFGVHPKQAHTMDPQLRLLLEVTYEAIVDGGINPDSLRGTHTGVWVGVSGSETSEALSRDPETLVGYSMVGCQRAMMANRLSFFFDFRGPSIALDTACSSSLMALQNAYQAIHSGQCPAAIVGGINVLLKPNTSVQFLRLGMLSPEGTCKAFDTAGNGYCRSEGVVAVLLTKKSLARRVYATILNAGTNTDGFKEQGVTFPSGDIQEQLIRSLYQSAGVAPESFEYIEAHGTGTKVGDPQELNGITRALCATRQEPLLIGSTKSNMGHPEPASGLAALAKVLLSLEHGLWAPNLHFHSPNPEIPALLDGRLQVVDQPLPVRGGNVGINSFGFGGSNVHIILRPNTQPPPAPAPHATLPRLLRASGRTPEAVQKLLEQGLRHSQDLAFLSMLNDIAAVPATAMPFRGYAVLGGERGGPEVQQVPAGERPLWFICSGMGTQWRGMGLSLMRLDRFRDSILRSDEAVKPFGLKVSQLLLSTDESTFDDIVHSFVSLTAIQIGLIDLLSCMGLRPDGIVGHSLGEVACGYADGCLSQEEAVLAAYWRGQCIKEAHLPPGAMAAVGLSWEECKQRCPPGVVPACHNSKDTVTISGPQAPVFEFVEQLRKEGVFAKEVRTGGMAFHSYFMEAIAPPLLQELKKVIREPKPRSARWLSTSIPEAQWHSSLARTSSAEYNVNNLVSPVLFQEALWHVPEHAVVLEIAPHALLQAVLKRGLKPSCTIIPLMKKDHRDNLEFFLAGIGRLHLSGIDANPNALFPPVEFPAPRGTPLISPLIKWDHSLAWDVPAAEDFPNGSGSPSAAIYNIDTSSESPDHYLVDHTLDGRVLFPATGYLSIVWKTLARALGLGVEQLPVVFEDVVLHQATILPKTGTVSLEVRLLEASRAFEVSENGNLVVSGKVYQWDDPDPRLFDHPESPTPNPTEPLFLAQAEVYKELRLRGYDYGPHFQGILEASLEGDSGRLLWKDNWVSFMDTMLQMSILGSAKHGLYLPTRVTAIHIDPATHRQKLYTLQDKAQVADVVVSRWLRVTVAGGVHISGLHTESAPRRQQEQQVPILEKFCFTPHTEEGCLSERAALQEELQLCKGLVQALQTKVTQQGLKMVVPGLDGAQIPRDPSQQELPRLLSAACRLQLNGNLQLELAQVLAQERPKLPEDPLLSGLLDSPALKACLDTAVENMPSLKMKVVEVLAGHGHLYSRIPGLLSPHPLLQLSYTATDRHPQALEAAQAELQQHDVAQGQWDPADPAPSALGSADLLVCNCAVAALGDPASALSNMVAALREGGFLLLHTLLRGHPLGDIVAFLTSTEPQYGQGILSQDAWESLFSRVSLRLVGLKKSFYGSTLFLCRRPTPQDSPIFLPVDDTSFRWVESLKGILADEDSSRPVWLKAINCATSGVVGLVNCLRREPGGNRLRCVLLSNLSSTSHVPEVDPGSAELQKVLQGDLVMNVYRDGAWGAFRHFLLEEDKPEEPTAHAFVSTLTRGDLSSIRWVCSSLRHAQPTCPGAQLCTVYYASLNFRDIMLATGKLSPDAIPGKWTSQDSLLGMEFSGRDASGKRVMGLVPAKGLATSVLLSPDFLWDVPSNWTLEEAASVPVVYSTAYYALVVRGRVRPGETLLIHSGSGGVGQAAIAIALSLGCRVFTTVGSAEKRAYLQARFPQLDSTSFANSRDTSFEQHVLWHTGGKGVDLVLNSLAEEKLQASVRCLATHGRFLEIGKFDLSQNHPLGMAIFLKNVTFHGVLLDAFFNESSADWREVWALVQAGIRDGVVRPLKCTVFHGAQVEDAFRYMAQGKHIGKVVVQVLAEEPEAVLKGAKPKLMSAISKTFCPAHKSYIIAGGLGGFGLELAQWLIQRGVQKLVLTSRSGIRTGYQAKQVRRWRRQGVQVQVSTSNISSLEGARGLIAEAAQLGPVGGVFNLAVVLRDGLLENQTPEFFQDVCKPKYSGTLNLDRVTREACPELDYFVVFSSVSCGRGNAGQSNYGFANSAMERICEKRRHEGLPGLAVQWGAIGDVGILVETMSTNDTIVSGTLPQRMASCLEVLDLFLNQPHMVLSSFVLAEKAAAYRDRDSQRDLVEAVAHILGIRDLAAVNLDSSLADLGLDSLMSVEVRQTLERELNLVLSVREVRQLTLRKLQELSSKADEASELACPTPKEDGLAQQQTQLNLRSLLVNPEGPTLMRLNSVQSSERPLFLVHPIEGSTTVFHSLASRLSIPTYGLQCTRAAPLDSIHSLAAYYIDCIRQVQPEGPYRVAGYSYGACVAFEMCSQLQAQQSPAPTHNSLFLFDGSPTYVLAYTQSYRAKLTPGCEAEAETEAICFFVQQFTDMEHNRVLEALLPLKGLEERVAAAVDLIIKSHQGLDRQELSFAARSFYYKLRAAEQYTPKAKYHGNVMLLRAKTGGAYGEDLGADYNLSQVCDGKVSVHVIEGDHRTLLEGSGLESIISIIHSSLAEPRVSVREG

Row | Compound | IC50 [nM]
1 | O=C(c1ccc(-c2nc3ccc(Cl)cc3o2)c(Cl)c1)N1CCN(C(=O)C2(O)CC2)CC1 [1-{4-[3-chloro-4-(6-chloro-1,3-benzoxazol-2-yl)benzoyl]piperazine-1-carbonyl}cyclopropan-1-ol] | < 500
2 | O=C(c1ccc(-c2nc3ccc(F)cc3o2)c(Cl)c1)N1CCN(C(=O)C2(O)CC2)CC1 [1-{4-[3-chloro-4-(6-fluoro-1,3-benzoxazol-2-yl)benzoyl]piperazine-1-carbonyl}cyclopropan-1-ol] | < 500
3 | Cn1cc2ccc(-c3ccc(C(=O)N4CCN(C(=O)C5(O)CC5)CC4)cc3F)cc2n1 [1-{4-[3-fluoro-4-(2-methyl-2H-indazol-6-yl)benzoyl]piperazine-1-carbonyl}cyclopropan-1-ol] | < 500
4 | O=C(c1ccc(-c2nc3ccc(F)cc3o2)c(F)c1)N1CCN(C(=O)C2(O)CC2)CC1 [1-{4-[3-fluoro-4-(6-fluoro-1,3-benzoxazol-2-yl)benzoyl]piperazine-1-carbonyl}cyclopropan-1-ol] | < 500
5 | O=C(c1ccc(N2CCc3ccccc3C2)cc1)N1CCN(C(=O)C2(O)CC2)CC1 [1-{4-[4-(1,2,3,4-tetrahydroisoquinolin-2-yl)benzoyl]piperazine-1-carbonyl}cyclopropan-1-ol] | < 500
6 | Cc1nn(C)c2ccc(-c3ccc(C(=O)N4CCN(C(=O)C5(N)CC5)CC4)c(F)c3)cc12 [1-{4-[4-(1,3-dimethyl-1H-indazol-5-yl)-2-fluorobenzoyl]piperazine-1-carbonyl}cyclopropan-1-amine] | < 500
7 | Cc1nn(C)c2ccc(-c3ccc(C(=O)N4CCN(C(=O)C5(N)CCC5)CC4)cc3)cc12 [1-{4-[4-(1,3-dimethyl-1H-indazol-5-yl)benzoyl]piperazine-1-carbonyl}cyclobutan-1-amine] | < 500
8 | CS(=O)(=O)n1ccc2ccc(-c3ccc(C(=O)N4CCN(C(=O)C5(O)CC5)CC4)cc3)cc21 [1-{4-[4-(1-methanesulfonyl-1H-indol-6-yl)benzoyl]piperazine-1-carbonyl}cyclopropan-1-ol] | < 500

Continued, values first:

Row | IC50 [nM] | Compound
9 | < 500 | Cn1cnc2cc(-c3ccc(C(=O)N4CCN(C(=O)C5(O)CC5)CC4)cc3F)ccc21 [1-{4-[3-fluoro-4-(1-methyl-1H-1,3-benzodiazol-5-yl)benzoyl]piperazine-1-carbonyl}cyclopropan-1-ol]
10 | < 500 | Cn1ncc2ccc(-c3ccc(C(=O)N4CCN(C(=O)C5(O)CC5)CC4)cc3F)cc21 [1-{4-[3-fluoro-4-(1-methyl-1H-indazol-6-yl)benzoyl]piperazine-1-carbonyl}cyclopropan-1-ol]
11 | < 500 | Cc1nn(C)c2ccc(-c3ccc(C(=O)N4CCN(C(=O)C5(N)CCC5)CC4)c(F)c3)cc12 [1-{4-[4-(1,3-dimethyl-1H-indazol-5-yl)-2-fluorobenzoyl]piperazine-1-carbonyl}cyclobutan-1-amine]
12 | < 500 | Cc1nn(C)c2ccc(-c3ccc(C(=O)N4CCN(C(=O)C5(O)CC5)CC4)c(F)c3)cc12 [1-{4-[4-(1,3-dimethyl-1H-indazol-5-yl)-2-fluorobenzoyl]piperazine-1-carbonyl}cyclopropan-1-ol]
13 | < 500 | Cc1nn(C)c2ccc(-c3ccc(C(=O)N4CCN(C(=O)C5(O)CC5)CC4)cc3F)cc12 [1-{4-[4-(1,3-dimethyl-1H-indazol-5-yl)-3-fluorobenzoyl]piperazine-1-carbonyl}cyclopropan-1-ol]
14 | < 500 | O=C(c1ccc(-c2ccc3c(cnn3C3CC3)c2)cc1)N1CCN(C(=O)C2(O)CC2)CC1 [1-{4-[4-(1-cyclopropyl-1H-indazol-5-yl)benzoyl]piperazine-1-carbonyl}cyclopropan-1-ol]
15 | < 500 | Cn1cnc2cc(-c3ccc(C(=O)N4CCN(C(=O)C5(O)CC5)CC45CC5)cc3)ccc21 [1-{4-[4-(1-methyl-1H-1,3-benzodiazol-5-yl)benzoyl]-4,7-diazaspiro[2.5]octane-7-carbonyl}cyclopropan-1-ol]
16 | < 500 | Cn1cnc2cc(-c3ccc(C(=O)N4CCN(C(=O)C5(O)CCC5)CC4)cc3)ccc21 [1-{4-[4-(1-methyl-1H-1,3-benzodiazol-5-yl)benzoyl]piperazine-1-carbonyl}cyclobutan-1-ol]
